Test results published in EP0013742A1, “Substituted sulfonic acid anilides, their preparation and use” (BASF Aktiengesellschaft, priority 1979, dated 1980).

Key:
Sommerweizen (Kolibri) = test: Growth height reduction in cereals, greenhouse, foliar spray (Beispiel A); format: in vivo, Weizen (Kolibri); conditions: 18 days growth; for Pflanzenhöhe cm: sprayed at 10 cm plant height, 100 plants measured; for Pflanzenhöhe relativ: untreated control = 100
From the text: (§1) Im Gewächshaus wurden die Getreidearten Weizen (Kolibri) und Gerste (Union) in Kunststoffschalen von 11,5 cm Durch- messer in Torfkultursubstrat, welches ausreichend mit Nährstoffen versorgt war, eingesät. Die Wirkstoffe wurden in unterschiedlichen Aufwandmengen über das Blatt zugeführt. Die Applikation erfolgte bei einer Wuchshöhe der Pflanzen von 10 cm in üblicher Weise durch Spritzen.
(§2) Während der Wachstumszeit von 18 Tagen zeigten die behandelten Pflanzen gegenüber der unbehandelten Kontrolle ein deutlich geringeres Längenwachstum, was durch die abschließenden Längenmessungen bestätigt werden konnte. Hierbei wurden von jeder Behandlungsreihe 100 Pflanzen gemessen.

Rasen = test: Effect on grass/lawn, vegetation test in Mitscherlich pots (Beispiel B); format: in vivo; conditions: for 1. Schnitt Pflanzenhöhe relativ / 1. Schnitt Pflanzenhöhe cm: 20 days after treatment; for 1. Schnitt Pflanzenhöhe relativ / 2. Schnitt Pflanzenhöhe relativ: untreated control = 100; for 2. Schnitt Pflanzenhöhe cm: regrowth over 4 weeks after 1st cut (after-effect); for 2. Schnitt Pflanzenhöhe relativ: regrowth over 4 weeks after 1st cut; for 1. Schnitt Pflanzenhöhe cm: sprayed at 4 cm height
From the text: In einem Vegetationsversuch in Mitscherlichgefäßen wurde auf einem lehmigen Sandboden Rasen der folgenden Standard--Mischung angesät: Agrostis tenuis 10 %, Cynosurus cristatus 10 %, Festuca rubra 15 %, Lolium perenne 35 % und Poa pratensis 30 %. Die Düngung wurde mit 1,5 g N als Ammonnitrat und 1 ^g P205 als sec. Kaliumphosphat vorgenommen. Nach 2 vorangegangenen Schnitten wurden die Wirkstoffe in verschiedenen Aufwandmengen bei einer Wuchshöhe von 4 cm in üblicher Weise gespritzt. 20 Tage nach der Behandlung wurde die Wuchshöhe bestimmt; nach erfolgtem 1. Schnitt wurde der Wiederaufwuchs über 4 Wochen bis hin zum 2. Schnitt beobachtet und ebenfalls Längenmessungen durchgeführt, um die Nachwirkung zu überprüfen. Gegenüber der Kontrolle reagierten die Pflanzen aus den Behandlungsreihen mit sehr starken Kürzungen. Die Nachwirkung ist besser zu beurteilen als bei der zum Vergleich herangezogenen bekannten Substanz, wie nachstehende Tabelle zeigt.

Sommergerste (Union) = test: Growth height reduction in cereals, greenhouse, foliar spray (Beispiel A); format: in vivo, Gerste (Union); conditions: for Pflanzenhöhe cm: sprayed at 10 cm plant height, 18 days growth; for Pflanzenhöhe relativ: untreated control = 100
From the text: as §1, §2

**Q.** With `CC(=O)Nc1cc(N(C#N)S(=O)(=O)C(F)(F)F)c(C)cc1C` [Beispiel 1, 5-Acetamido-N -cyano-2,4-dimethyl-trifluormethansulfonsäureanilid] as the molecule, how does the Pflanzenhöhe cm (Sommerweizen (Kolibri); Aufwandmenge 1,5 kg/ha) read?
**A.** Its Pflanzenhöhe cm is 13,0 cm.

**Q.** What about the Pflanzenhöhe relativ (Sommerweizen (Kolibri); Aufwandmenge 1,5 kg/ha) of the same molecule?
**A.** The Pflanzenhöhe relativ was 48,5.

**Q.** And the Pflanzenhöhe cm (Sommerweizen (Kolibri); Aufwandmenge 6,0 kg/ha)?
**A.** The Pflanzenhöhe cm was 12,6 cm.

**Q.** And the Pflanzenhöhe relativ (Sommerweizen (Kolibri); Aufwandmenge 6,0 kg/ha)?
**A.** Its Pflanzenhöhe relativ is 46,6.

**Q.** And the “1. Schnitt Pflanzenhöhe relativ” value (Rasen; Aufwandmenge 0,5 kg/ha)?
**A.** Its value is 38,5.

**Q.** And the “2. Schnitt Pflanzenhöhe cm” value (Rasen; Aufwandmenge 0,5 kg/ha)?
**A.** The value was 8,0 cm.

**Q.** And the “2. Schnitt Pflanzenhöhe relativ” value (Rasen; Aufwandmenge 0,5 kg/ha)?
**A.** Its value is 72,7.

**Q.** What about the “1. Schnitt Pflanzenhöhe cm” value (Rasen; Aufwandmenge 0,5 kg/ha) of the same molecule?
**A.** Its value is 5,5 cm.

**Q.** And the “1. Schnitt Pflanzenhöhe relativ” value (Rasen; Aufwandmenge 0,75 kg/ha)?
**A.** Its value is 31,5.

**Q.** And the “2. Schnitt Pflanzenhöhe cm” value (Rasen; Aufwandmenge 0,75 kg/ha)?
**A.** Its value is 7,0 cm.

**Q.** And the “2. Schnitt Pflanzenhöhe relativ” value (Rasen; Aufwandmenge 0,75 kg/ha)?
**A.** The value was 63,6.

**Q.** And the “1. Schnitt Pflanzenhöhe cm” value (Rasen; Aufwandmenge 0,75 kg/ha)?
**A.** Its value is 4,5 cm.

**Q.** `CC(=O)Nc1ccc(C)c(N(C#N)S(=O)(=O)C(F)(F)F)c1` [Beispiel 67] was tested. Which Pflanzenhöhe cm (Sommerweizen (Kolibri); Aufwandmenge 1,5 kg/ha) did it give?
**A.** Its Pflanzenhöhe cm is 13,5 cm.

**Q.** What about the Pflanzenhöhe relativ (Sommerweizen (Kolibri); Aufwandmenge 1,5 kg/ha) of the same molecule?
**A.** The Pflanzenhöhe relativ was 50,4.

**Q.** And the Pflanzenhöhe cm (Sommerweizen (Kolibri); Aufwandmenge 6,0 kg/ha)?
**A.** Its Pflanzenhöhe cm is 12,0 cm.

**Q.** And the Pflanzenhöhe relativ (Sommerweizen (Kolibri); Aufwandmenge 6,0 kg/ha)?
**A.** Its Pflanzenhöhe relativ is 44,8.

**Q.** What about the “1. Schnitt Pflanzenhöhe relativ” value (Rasen; Aufwandmenge 0,5 kg/ha) of the same molecule?
**A.** Its value is 97,4.

**Q.** And the “2. Schnitt Pflanzenhöhe cm” value (Rasen; Aufwandmenge 0,5 kg/ha)?
**A.** Its value is 11,0 cm.

**Q.** And the “2. Schnitt Pflanzenhöhe relativ” value (Rasen; Aufwandmenge 0,5 kg/ha)?
**A.** The value was 100.

**Q.** And the “1. Schnitt Pflanzenhöhe cm” value (Rasen; Aufwandmenge 0,5 kg/ha)?
**A.** Its value is 14,0 cm.

**Q.** What about the “1. Schnitt Pflanzenhöhe relativ” value (Rasen; Aufwandmenge 0,75 kg/ha) of the same molecule?
**A.** Its value is 87,4.

**Q.** What about the “2. Schnitt Pflanzenhöhe cm” value (Rasen; Aufwandmenge 0,75 kg/ha) of the same molecule?
**A.** The value was 9,0 cm.

**Q.** And the “2. Schnitt Pflanzenhöhe relativ” value (Rasen; Aufwandmenge 0,75 kg/ha)?
**A.** The value was 81,8.

**Q.** And the “1. Schnitt Pflanzenhöhe cm” value (Rasen; Aufwandmenge 0,75 kg/ha)?
**A.** The value was 12,5 cm.

**Q.** Which Pflanzenhöhe cm (Sommerweizen (Kolibri); Aufwandmenge 1,5 kg/ha) does the source give for `CC(=O)Nc1ccc(C)c(NS(=O)(=O)C(F)(F)F)c1` [Fluoridamid, 5-Acetam.ido-2-methyl-trifluormethansulfonsäureanilid, reference compound] here?
**A.** The Pflanzenhöhe cm was 17,0 cm.

**Q.** And the Pflanzenhöhe relativ (Sommerweizen (Kolibri); Aufwandmenge 1,5 kg/ha)?
**A.** The Pflanzenhöhe relativ was 63,4.

**Q.** What about the Pflanzenhöhe cm (Sommerweizen (Kolibri); Aufwandmenge 6,0 kg/ha) of the same molecule?
**A.** Its Pflanzenhöhe cm is 15,0 cm.

**Q.** What about the Pflanzenhöhe relativ (Sommerweizen (Kolibri); Aufwandmenge 6,0 kg/ha) of the same molecule?
**A.** Its Pflanzenhöhe relativ is 56,0.

**Q.** And the “1. Schnitt Pflanzenhöhe relativ” value (Rasen; Aufwandmenge 0,5 kg/ha)?
**A.** The value was 94,4.

**Q.** What about the “2. Schnitt Pflanzenhöhe cm” value (Rasen; Aufwandmenge 0,5 kg/ha) of the same molecule?
**A.** The value was 11,0 cm.

**Q.** What about the “2. Schnitt Pflanzenhöhe relativ” value (Rasen; Aufwandmenge 0,5 kg/ha) of the same molecule?
**A.** Its value is 100.

**Q.** And the “1. Schnitt Pflanzenhöhe cm” value (Rasen; Aufwandmenge 0,5 kg/ha)?
**A.** Its value is 13,5 cm.

**Q.** And the “1. Schnitt Pflanzenhöhe relativ” value (Rasen; Aufwandmenge 0,75 kg/ha)?
**A.** Its value is 87,4.

**Q.** And the “2. Schnitt Pflanzenhöhe cm” value (Rasen; Aufwandmenge 0,75 kg/ha)?
**A.** The value was 10,0 cm.

**Q.** What about the “2. Schnitt Pflanzenhöhe relativ” value (Rasen; Aufwandmenge 0,75 kg/ha) of the same molecule?
**A.** The value was 90,9.

**Q.** And the “1. Schnitt Pflanzenhöhe cm” value (Rasen; Aufwandmenge 0,75 kg/ha)?
**A.** Its value is 12,5 cm.

**Q.** For `CC(=O)Nc1cc(NS(=O)(=O)C(F)(F)F)c(C)cc1C` [Mefluidide, 5-Acetamido-2,4--dimethyl-trifluormethansulfonsäureanilid], which Pflanzenhöhe cm (Sommergerste (Union); Aufwandmenge 0,25 kg/ha) is on record?
**A.** The Pflanzenhöhe cm was 27,0 cm.

**Q.** And the Pflanzenhöhe relativ (Sommergerste (Union); Aufwandmenge 0,25 kg/ha)?
**A.** The Pflanzenhöhe relativ was 96,4.

**Q.** What about the Pflanzenhöhe cm (Sommergerste (Union); Aufwandmenge 0,75 kg/ha) of the same molecule?
**A.** The Pflanzenhöhe cm was 18,0 cm.

**Q.** And the Pflanzenhöhe relativ (Sommergerste (Union); Aufwandmenge 0,75 kg/ha)?
**A.** The Pflanzenhöhe relativ was 64,3.

**Q.** And the Pflanzenhöhe cm (Sommergerste (Union); Aufwandmenge 1,50 kg/ha)?
**A.** The Pflanzenhöhe cm was 17,5 cm.

**Q.** And the Pflanzenhöhe relativ (Sommergerste (Union); Aufwandmenge 1,50 kg/ha)?
**A.** Its Pflanzenhöhe relativ is 62,5.

**Q.** What about the Pflanzenhöhe cm (Sommergerste (Union); Aufwandmenge 3,00 kg/ha) of the same molecule?
**A.** The Pflanzenhöhe cm was 16,0 cm.

**Q.** And the Pflanzenhöhe relativ (Sommergerste (Union); Aufwandmenge 3,00 kg/ha)?
**A.** Its Pflanzenhöhe relativ is 57,1.
